In the kinase profiling compilation of Christmann-Franck et al. (2016):

Experiments:
Assay in all cases: radiometric filter-binding kinase assay
RIPK2 (human) = RIPK2 (human) (UniProt O43353)
CAMKK2 (human) = CAMKK2 (human) (UniProt Q96RR4)
CaMK1 (human) = CaMK1 (human) (UniProt Q14012)
IKBKE (human) = IKBKE (human) (UniProt Q14164)
EPHA4 (human) = EPHA4 (human) (UniProt P54764)
MINK1 (human) = MINK1 (human) (UniProt Q8N4C8)
DYRK1A (human) = DYRK1A (human) (UniProt Q13627)
MELK (human) = MELK (human) (UniProt Q14680)
IGF1R (human) = IGF1R (human) (UniProt P08069)
EPHB3 (human) = EPHB3 (human) (UniProt P54753)
MAP3K11 (human) = MAP3K11 (human) (UniProt Q16584)
MAP3K11 (human), sequence (Q16584 whole entry, looked up): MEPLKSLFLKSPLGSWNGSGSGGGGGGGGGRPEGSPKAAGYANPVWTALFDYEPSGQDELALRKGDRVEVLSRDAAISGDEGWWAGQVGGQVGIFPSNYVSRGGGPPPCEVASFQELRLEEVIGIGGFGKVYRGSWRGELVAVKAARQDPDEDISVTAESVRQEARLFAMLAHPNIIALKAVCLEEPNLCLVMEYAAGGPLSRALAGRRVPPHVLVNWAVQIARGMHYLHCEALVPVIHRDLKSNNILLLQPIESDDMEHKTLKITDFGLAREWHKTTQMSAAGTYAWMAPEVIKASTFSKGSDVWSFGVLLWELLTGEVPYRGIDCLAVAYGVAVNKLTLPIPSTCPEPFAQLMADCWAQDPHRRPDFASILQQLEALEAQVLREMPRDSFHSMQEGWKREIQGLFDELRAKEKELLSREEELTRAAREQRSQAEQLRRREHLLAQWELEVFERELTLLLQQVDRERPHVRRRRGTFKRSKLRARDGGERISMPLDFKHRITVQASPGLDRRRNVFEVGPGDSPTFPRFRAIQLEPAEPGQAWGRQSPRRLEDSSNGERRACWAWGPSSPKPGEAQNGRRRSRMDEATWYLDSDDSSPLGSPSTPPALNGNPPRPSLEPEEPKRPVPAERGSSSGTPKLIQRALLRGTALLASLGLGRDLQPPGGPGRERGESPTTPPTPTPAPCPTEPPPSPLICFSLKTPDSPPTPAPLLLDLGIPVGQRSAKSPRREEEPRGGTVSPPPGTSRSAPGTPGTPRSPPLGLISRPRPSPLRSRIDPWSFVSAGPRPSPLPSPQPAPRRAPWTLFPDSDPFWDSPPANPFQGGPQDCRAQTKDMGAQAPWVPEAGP

MAP2K2 (human) = MAP2K2 (human) (UniProt P36507)
IKBKB (human) = IKBKB (human) (UniProt O14920)
MAPK14 (human) = MAPK14 (human) (UniProt Q16539)
EPHB2 (human) = EPHB2 (human) (UniProt P29323)
EPHB2 (human), sequence (P29323 whole entry, looked up): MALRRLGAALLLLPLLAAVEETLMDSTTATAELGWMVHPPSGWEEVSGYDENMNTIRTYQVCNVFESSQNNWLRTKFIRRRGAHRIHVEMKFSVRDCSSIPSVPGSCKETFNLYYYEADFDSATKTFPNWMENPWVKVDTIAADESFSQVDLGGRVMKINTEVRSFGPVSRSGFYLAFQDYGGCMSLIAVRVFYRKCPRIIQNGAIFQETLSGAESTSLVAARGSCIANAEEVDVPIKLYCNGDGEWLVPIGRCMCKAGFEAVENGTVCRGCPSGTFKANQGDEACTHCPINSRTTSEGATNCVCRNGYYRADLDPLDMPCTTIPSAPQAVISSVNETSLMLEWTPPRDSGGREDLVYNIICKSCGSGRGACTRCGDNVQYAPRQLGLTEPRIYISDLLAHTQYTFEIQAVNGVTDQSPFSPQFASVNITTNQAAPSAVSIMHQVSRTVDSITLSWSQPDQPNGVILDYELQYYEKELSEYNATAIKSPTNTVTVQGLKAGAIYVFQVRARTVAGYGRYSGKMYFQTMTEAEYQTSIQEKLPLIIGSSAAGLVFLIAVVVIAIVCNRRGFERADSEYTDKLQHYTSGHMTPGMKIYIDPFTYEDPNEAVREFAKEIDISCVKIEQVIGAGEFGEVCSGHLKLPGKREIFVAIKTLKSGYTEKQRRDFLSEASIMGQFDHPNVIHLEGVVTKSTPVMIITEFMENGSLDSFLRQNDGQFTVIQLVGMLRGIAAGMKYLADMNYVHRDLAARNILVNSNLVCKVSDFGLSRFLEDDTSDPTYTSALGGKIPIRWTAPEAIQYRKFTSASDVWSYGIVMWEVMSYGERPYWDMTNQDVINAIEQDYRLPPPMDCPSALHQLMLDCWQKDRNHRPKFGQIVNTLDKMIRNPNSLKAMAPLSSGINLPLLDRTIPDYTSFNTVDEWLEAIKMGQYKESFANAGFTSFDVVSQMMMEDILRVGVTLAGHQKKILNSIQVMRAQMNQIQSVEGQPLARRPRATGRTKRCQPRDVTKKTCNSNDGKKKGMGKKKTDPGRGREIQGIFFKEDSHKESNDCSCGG

MAPK8 (human) = MAPK8 (human) (UniProt P45983)
MAPK8 (human), sequence (P45983 whole entry, looked up): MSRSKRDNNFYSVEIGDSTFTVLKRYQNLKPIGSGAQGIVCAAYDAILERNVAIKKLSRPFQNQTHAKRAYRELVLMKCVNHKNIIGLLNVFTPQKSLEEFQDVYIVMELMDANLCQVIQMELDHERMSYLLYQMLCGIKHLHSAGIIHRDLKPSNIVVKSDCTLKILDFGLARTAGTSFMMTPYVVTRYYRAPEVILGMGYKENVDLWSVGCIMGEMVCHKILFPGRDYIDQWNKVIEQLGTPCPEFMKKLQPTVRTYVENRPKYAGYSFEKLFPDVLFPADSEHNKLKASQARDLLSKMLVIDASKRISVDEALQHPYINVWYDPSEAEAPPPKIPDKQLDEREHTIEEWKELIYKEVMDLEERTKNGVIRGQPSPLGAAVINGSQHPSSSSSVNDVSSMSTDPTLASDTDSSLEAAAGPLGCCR

MAP3K7 TAB1 (human) = MAP3K7 TAB1 (human) (UniProt Q15750+O43318)
PRKACA (human) = PRKACA (human) (UniProt P17612)
HIPK2 (human) = HIPK2 (human) (UniProt Q9H2X6)
MAPKAPK2 (human) = MAPKAPK2 (human) (UniProt P49137)
DYRK2 (human) = DYRK2 (human) (UniProt Q92630)
DYRK2 (human), sequence (Q92630 whole entry, looked up): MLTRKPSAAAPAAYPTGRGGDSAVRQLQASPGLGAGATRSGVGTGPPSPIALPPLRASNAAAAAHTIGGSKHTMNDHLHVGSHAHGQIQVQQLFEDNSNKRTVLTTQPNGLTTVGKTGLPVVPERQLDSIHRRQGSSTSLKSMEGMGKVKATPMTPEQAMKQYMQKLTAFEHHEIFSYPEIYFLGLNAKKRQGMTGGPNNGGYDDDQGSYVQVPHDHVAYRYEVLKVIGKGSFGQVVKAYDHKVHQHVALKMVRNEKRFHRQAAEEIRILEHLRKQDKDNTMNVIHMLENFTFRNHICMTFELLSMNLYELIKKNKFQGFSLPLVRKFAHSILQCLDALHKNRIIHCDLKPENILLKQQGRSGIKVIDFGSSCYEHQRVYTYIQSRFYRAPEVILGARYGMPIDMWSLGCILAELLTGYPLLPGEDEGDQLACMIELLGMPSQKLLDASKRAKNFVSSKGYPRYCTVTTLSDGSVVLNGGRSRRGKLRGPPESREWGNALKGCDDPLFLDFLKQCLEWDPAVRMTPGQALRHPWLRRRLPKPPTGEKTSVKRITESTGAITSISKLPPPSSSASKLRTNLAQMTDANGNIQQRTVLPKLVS

PIM1 (human) = PIM1 (human) (UniProt P11309)
PAK4 (human) = PAK4 (human) (UniProt O96013)
YES1 (human) = YES1 (human) (UniProt P07947)
CSK (human) = CSK (human) (UniProt P41240)
BRSK1 (human) = BRSK1 (human) (UniProt Q8TDC3)
MAPK15 (human) = MAPK15 (human) (UniProt Q8TD08)
AURKB (human) = AURKB (human) (UniProt Q96GD4)
MKNK2 (human) = MKNK2 (human) (UniProt Q9HBH9)
PAK7 (human) = PAK7 (human) (UniProt Q9P286)
PAK7 (human), sequence (Q9P286 whole entry, looked up): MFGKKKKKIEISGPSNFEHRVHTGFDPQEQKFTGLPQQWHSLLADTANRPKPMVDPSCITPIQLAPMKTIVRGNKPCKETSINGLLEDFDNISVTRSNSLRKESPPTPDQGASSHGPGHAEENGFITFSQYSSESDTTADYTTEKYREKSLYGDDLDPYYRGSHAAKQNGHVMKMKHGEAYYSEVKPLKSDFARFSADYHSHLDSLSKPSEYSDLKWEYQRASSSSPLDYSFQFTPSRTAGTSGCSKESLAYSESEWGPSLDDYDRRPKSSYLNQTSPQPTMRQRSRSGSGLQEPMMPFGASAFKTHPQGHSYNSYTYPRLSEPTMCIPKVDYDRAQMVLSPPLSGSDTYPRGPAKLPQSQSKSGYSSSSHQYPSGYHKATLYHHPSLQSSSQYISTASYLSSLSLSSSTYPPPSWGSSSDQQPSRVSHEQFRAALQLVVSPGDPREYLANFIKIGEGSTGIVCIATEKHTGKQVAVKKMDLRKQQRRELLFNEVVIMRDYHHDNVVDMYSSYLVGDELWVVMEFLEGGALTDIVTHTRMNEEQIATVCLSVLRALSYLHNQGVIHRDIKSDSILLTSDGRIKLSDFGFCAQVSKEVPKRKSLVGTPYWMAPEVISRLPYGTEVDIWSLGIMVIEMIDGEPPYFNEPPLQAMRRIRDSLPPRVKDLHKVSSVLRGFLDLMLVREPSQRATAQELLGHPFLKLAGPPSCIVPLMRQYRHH

MAPK9 (human) = MAPK9 (human) (UniProt P45984)
BTK (human) = BTK (human) (UniProt Q06187)
MAPKAPK5 (human) = MAPKAPK5 (human) (UniProt Q8IW41)
CSNK1D (human) = CSNK1D (human) (UniProt P48730)

EPHA4 (human), sequence (P54764 whole entry, looked up): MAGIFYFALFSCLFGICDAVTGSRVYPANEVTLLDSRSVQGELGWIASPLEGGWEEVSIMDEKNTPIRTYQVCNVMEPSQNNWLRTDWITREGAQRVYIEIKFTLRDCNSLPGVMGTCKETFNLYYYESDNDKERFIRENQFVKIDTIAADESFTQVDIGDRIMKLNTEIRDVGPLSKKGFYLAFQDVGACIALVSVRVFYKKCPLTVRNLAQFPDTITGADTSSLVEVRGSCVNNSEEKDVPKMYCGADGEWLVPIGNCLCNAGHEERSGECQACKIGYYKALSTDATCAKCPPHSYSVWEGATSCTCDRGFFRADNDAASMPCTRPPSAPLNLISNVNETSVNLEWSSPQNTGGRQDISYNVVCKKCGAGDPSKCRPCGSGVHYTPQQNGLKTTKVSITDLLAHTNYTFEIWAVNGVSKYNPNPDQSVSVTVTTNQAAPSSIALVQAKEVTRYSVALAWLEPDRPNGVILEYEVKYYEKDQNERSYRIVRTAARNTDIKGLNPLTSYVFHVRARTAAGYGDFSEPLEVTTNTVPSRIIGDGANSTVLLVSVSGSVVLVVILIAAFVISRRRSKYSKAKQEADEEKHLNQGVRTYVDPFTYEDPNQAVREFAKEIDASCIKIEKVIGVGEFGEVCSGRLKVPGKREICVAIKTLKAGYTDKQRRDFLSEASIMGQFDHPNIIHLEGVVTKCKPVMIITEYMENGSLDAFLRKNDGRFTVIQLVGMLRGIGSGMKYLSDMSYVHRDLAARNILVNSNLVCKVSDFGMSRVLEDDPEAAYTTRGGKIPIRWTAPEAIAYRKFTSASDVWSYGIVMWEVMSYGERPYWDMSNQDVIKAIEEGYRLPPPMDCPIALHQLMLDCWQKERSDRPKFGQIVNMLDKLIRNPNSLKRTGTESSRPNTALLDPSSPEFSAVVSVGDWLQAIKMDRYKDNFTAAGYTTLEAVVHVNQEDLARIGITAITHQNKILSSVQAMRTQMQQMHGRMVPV
CaMK1 (human), sequence (Q14012 whole entry, looked up): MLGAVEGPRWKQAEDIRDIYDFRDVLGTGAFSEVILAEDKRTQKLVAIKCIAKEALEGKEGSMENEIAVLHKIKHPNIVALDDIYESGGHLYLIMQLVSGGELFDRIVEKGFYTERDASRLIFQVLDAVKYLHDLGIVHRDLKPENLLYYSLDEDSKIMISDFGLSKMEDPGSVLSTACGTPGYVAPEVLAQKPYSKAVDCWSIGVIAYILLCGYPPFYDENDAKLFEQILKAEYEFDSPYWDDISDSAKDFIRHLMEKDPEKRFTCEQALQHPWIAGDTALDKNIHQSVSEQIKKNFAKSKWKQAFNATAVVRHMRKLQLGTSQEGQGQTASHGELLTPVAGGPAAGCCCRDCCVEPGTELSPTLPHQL

Question: Which residual activity (RIPK2 (human); compound 1.0 µM) does the source give for `COc1cc2ncn(-c3cc(OCc4ccccc4S(C)(=O)=O)c(C#N)s3)c2cc1OC` here?
Answer: 14%

Question: What about the residual activity (RIPK2 (human); compound 10.0 µM) of the same molecule?
Answer: 6%

Question: And the residual activity (CAMKK2 (human); compound 1.0 µM)?
Answer: 112%

Question: What about the residual activity (CAMKK2 (human); compound 10.0 µM) of the same molecule?
Answer: 86%

Question: What about the residual activity (CaMK1 (human); compound 1.0 µM) of the same molecule?
Answer: 90%

Question: And the residual activity (CaMK1 (human); compound 10.0 µM)?
Answer: 80%

Question: What about the residual activity (IKBKE (human); compound 1.0 µM) of the same molecule?
Answer: 9%

Question: What about the residual activity (IKBKE (human); compound 10.0 µM) of the same molecule?
Answer: 6%

Question: And the residual activity (EPHA4 (human); compound 1.0 µM)?
Answer: 57%

Question: And the residual activity (EPHA4 (human); compound 10.0 µM)?
Answer: 45%

Question: And the residual activity (MINK1 (human); compound 1.0 µM)?
Answer: 5%

Question: And the residual activity (MINK1 (human); compound 10.0 µM)?
Answer: 1%

Question: What about the residual activity (DYRK1A (human); compound 1.0 µM) of the same molecule?
Answer: 73%

Question: And the residual activity (DYRK1A (human); compound 10.0 µM)?
Answer: 81%

Question: What about the residual activity (MELK (human); compound 1.0 µM) of the same molecule?
Answer: 84%

Question: What about the residual activity (MELK (human); compound 10.0 µM) of the same molecule?
Answer: 59%

Question: What about the residual activity (IGF1R (human); compound 1.0 µM) of the same molecule?
Answer: 89%

Question: What about the residual activity (IGF1R (human); compound 10.0 µM) of the same molecule?
Answer: 92%

Question: And the residual activity (EPHB3 (human); compound 1.0 µM)?
Answer: 40%

Question: And the residual activity (EPHB3 (human); compound 10.0 µM)?
Answer: 27%

Question: And the residual activity (MAP3K11 (human); compound 1.0 µM)?
Answer: 5%

Question: What about the residual activity (MAP3K11 (human); compound 10.0 µM) of the same molecule?
Answer: 3%

Question: And the residual activity (MAP2K2 (human); compound 1.0 µM)?
Answer: 75%

Question: And the residual activity (MAP2K2 (human); compound 10.0 µM)?
Answer: 57%

Question: What about the residual activity (IKBKB (human); compound 1.0 µM) of the same molecule?
Answer: 103%

Question: And the residual activity (IKBKB (human); compound 10.0 µM)?
Answer: 78%

Question: And the residual activity (MAPK14 (human); compound 1.0 µM)?
Answer: 91%

Question: And the residual activity (MAPK14 (human); compound 10.0 µM)?
Answer: 85%

Question: And the residual activity (EPHB2 (human); compound 1.0 µM)?
Answer: 62%

Question: What about the residual activity (EPHB2 (human); compound 10.0 µM) of the same molecule?
Answer: 50%

Question: And the residual activity (MAPK8 (human); compound 1.0 µM)?
Answer: 92%

Question: And the residual activity (MAPK8 (human); compound 10.0 µM)?
Answer: 87%

Question: And the residual activity (MAP3K7 TAB1 (human); compound 1.0 µM)?
Answer: 100%

Question: And the residual activity (MAP3K7 TAB1 (human); compound 10.0 µM)?
Answer: 70%

Question: What about the residual activity (PRKACA (human); compound 1.0 µM) of the same molecule?
Answer: 101%

Question: And the residual activity (PRKACA (human); compound 10.0 µM)?
Answer: 83%

Question: What about the residual activity (HIPK2 (human); compound 1.0 µM) of the same molecule?
Answer: 49%

Question: And the residual activity (HIPK2 (human); compound 10.0 µM)?
Answer: 32%

Question: What about the residual activity (MAPKAPK2 (human); compound 1.0 µM) of the same molecule?
Answer: 99%

Question: And the residual activity (MAPKAPK2 (human); compound 10.0 µM)?
Answer: 85%

Question: What about the residual activity (DYRK2 (human); compound 1.0 µM) of the same molecule?
Answer: 84%

Question: And the residual activity (DYRK2 (human); compound 10.0 µM)?
Answer: 72%

Question: What about the residual activity (PIM1 (human); compound 1.0 µM) of the same molecule?
Answer: 94%

Question: And the residual activity (PIM1 (human); compound 10.0 µM)?
Answer: 71%

Question: What about the residual activity (PAK4 (human); compound 1.0 µM) of the same molecule?
Answer: 53%

Question: What about the residual activity (PAK4 (human); compound 10.0 µM) of the same molecule?
Answer: 41%

Question: And the residual activity (YES1 (human); compound 1.0 µM)?
Answer: 43%

Question: And the residual activity (YES1 (human); compound 10.0 µM)?
Answer: 58%

Question: What about the residual activity (CSK (human); compound 1.0 µM) of the same molecule?
Answer: 81%

Question: And the residual activity (CSK (human); compound 10.0 µM)?
Answer: 74%

Question: What about the residual activity (BRSK1 (human); compound 1.0 µM) of the same molecule?
Answer: 40%

Question: What about the residual activity (MAPK15 (human); compound 1.0 µM) of the same molecule?
Answer: 65%

Question: What about the residual activity (MAPK15 (human); compound 10.0 µM) of the same molecule?
Answer: 15%

Question: What about the residual activity (AURKB (human); compound 1.0 µM) of the same molecule?
Answer: 6%

Question: What about the residual activity (AURKB (human); compound 10.0 µM) of the same molecule?
Answer: 4%

Question: And the residual activity (MKNK2 (human); compound 1.0 µM)?
Answer: 47%

Question: And the residual activity (MKNK2 (human); compound 10.0 µM)?
Answer: 35%

Question: What about the residual activity (PAK7 (human); compound 1.0 µM) of the same molecule?
Answer: 80%

Question: And the residual activity (PAK7 (human); compound 10.0 µM)?
Answer: 58%

Question: And the residual activity (MAPK9 (human); compound 1.0 µM)?
Answer: 95%

Question: What about the residual activity (MAPK9 (human); compound 10.0 µM) of the same molecule?
Answer: 90%

Question: What about the residual activity (BTK (human); compound 1.0 µM) of the same molecule?
Answer: 63%

Question: And the residual activity (BTK (human); compound 10.0 µM)?
Answer: 45%

Question: What about the residual activity (MAPKAPK5 (human); compound 1.0 µM) of the same molecule?
Answer: 101%

Question: And the residual activity (CSNK1D (human); compound 1.0 µM)?
Answer: 89%

Question: What about the residual activity (CSNK1D (human); compound 10.0 µM) of the same molecule?
Answer: 91%

Question: What does the source list for `CC(C)C[C@H](NC(=O)CNC(=O)c1cc(Cl)ccc1Cl)B1OC(=O)CC(CC(=O)O)(C(=O)O)O1` (stereo not given in full)?
Answer: residual activity (RIPK2 (human); compound 10.0 µM): 91%; residual activity (CAMKK2 (human); compound 10.0 µM): 86%; residual activity (CaMK1 (human); compound 10.0 µM): 80%; residual activity (IKBKE (human); compound 10.0 µM): 91%; residual activity (EPHA4 (human); compound 10.0 µM): 69%; residual activity (MINK1 (human); compound 10.0 µM): 73%; residual activity (DYRK1A (human); compound 10.0 µM): 88%; residual activity (MELK (human); compound 10.0 µM): 80%; residual activity (IGF1R (human); compound 10.0 µM): 87%; residual activity (EPHB3 (human); compound 10.0 µM): 62%; residual activity (MAP3K11 (human); compound 10.0 µM): 99%; residual activity (MAP2K2 (human); compound 10.0 µM): 94%; residual activity (IKBKB (human); compound 10.0 µM): 97%; residual activity (MAPK14 (human); compound 10.0 µM): 88%; residual activity (EPHB2 (human); compound 10.0 µM): 95%; residual activity (MAPK8 (human); compound 10.0 µM): 85%; residual activity (MAP3K7 TAB1 (human); compound 10.0 µM): 127%; residual activity (PRKACA (human); compound 10.0 µM): 95%; residual activity (HIPK2 (human); compound 10.0 µM): 88%; residual activity (MAPKAPK2 (human); compound 10.0 µM): 88%; residual activity (DYRK2 (human); compound 10.0 µM): 94%; residual activity (PIM1 (human); compound 10.0 µM): 88%; residual activity (PAK4 (human); compound 10.0 µM): 77%; residual activity (YES1 (human); compound 10.0 µM): 82%; residual activity (CSK (human); compound 10.0 µM): 69%; residual activity (BRSK1 (human); compound 10.0 µM): 90%; residual activity (MAPK15 (human); compound 10.0 µM): 100%; residual activity (AURKB (human); compound 10.0 µM): 75%; residual activity (MKNK2 (human); compound 10.0 µM): 80%; residual activity (PAK7 (human); compound 10.0 µM): 94%; residual activity (MAPK9 (human); compound 10.0 µM): 87%; residual activity (BTK (human); compound 10.0 µM): 90%; residual activity (MAPKAPK5 (human); compound 10.0 µM): 92%; residual activity (CSNK1D (human); compound 10.0 µM): 81%
